Paper PMC4256349, “A Conformational Sampling Model for Radical Catalysis in Pyridoxal Phosphate- and Cobalamin-dependent Enzymes” (The Journal of Biological Chemistry, 2014)

How the values were obtained:
[1] = target: T1, ornithine 4,5-aminomutase (OAM) (Acetoanaerobium sticklandii, UniProt E3PY95); experiment: UV-visible spectra, external aldimine formation; format: binding; parameters: gene oraE; C-terminal His6 (pET-OAMH2), expressed in E. coli; purified apoenzyme reconstituted with PLP and AdoCbl; OAM dimer printed (alpha2beta2 known); settings: aerobic, pH 8.5, 25 °C, 5 mM; inhibitor, covalent (PLP external aldimine)
T1 sequence (E3PY95 1-740): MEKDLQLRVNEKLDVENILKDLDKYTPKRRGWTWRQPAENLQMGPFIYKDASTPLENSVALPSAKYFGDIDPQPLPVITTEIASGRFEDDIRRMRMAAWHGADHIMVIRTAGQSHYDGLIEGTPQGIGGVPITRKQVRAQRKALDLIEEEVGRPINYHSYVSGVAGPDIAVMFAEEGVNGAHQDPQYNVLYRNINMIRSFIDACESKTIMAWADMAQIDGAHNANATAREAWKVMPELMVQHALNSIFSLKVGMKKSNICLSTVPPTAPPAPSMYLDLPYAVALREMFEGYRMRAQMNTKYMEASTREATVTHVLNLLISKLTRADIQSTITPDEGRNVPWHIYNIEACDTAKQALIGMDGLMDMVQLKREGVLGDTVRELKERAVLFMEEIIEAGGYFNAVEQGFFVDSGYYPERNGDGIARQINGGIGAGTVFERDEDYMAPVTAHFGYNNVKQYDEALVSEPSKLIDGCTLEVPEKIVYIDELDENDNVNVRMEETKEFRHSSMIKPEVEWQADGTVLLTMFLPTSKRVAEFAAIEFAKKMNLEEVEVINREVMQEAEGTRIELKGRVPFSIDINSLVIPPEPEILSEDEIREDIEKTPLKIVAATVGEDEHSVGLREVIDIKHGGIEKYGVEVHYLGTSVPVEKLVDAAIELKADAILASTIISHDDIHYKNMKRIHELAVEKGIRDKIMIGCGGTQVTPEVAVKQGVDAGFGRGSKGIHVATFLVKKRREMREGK
T1 sequence (E3PY96 1-121 partner): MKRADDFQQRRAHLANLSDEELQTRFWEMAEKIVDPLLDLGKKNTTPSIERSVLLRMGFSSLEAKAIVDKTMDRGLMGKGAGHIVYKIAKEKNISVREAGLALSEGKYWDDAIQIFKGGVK

[2] = target: T1, ornithine 4,5-aminomutase (OAM); experiment: UV-visible, stopped flow and EPR; external aldimine and Co-C homolysis; format: binding; parameters: gene oraE; C-terminal His6 (pET-OAMH2), expressed in E. coli; purified apoenzyme reconstituted with PLP and AdoCbl; OAM dimer printed (alpha2beta2 known); settings: anaerobic, pH 8.5, 25 °C, 2.5 mM; inhibitor, covalent (PLP external aldimine)
[3] = target: T1, ornithine 4,5-aminomutase (OAM); parameters: gene oraE; settings: anaerobic, pH 8.5, 25 °C; equimolar with apoenzyme; covalent (Lys629)

In the case of `NCC(N)C(=O)O` (racemic) [DL-2,3-diaminopropanoic acid], the “UV-visible spectra, external aldimine formation” value [1] was “does not induce AdoCbl bond homolysis but does lead to external aldimine formation”.

In the case of `NCCC(N)C(=O)O` (racemic) [DL-2,4-diaminobutyric acid], the “UV-visible, stopped flow and EPR; external aldimine and Co-C homolysis” value [2] was “transimination induced by the DAB binding with PLP”.

With `Cc1ncc(COP(=O)(O)O)c(C=O)c1O` [PLP] the “UV-visible spectra, transimination at 416 nm” value [3] was “transimination induced by the D-ornithine binding with PLP”.
